Data as given in patent US20260315434A1, “USE OF GUAIACOL SESQUITERPENE LACTONE DERIVATIVES” (NANJING UNIVERSITY OF CHINESE MEDICINE, priority 2023, published 2026).
Converted amounts (≈) assume the structure as drawn.

Key:
[1] = Conversion (release) of prodrug salts to parent compound in HEPES buffer pH 7.4; format: in vitro ADME; conditions: hepes buffer, pH 7.4, HEPES pH 7.4, 37 °C, read-out: Release rate (conversion to Compound 1)
Method: (§1) Pharmaceutically acceptable salts of guaiane-type sesquiterpene lactone derivatives were selected and evaluated for their conversion rates to Compound 1 and Compound 83 in plasma and HEPES buffer, with results shown in Tables 2-1, 2-2, 3-1, and 3-2.
Experimental Method: Preparation of HEPES 7.4 Solution: Dissolve 1.6 g NaCl, 0.074 g KCl, 0.027 g Na2HPO4, 0.2 g glucose, and 1 g 4-(2-Hydroxyethyl)piperazine-1-ethanesulfonic acid (HEPES) solution in 90 mL distilled water. Adjust the pH to 7.4 using 0.5 M NaOH, then dilute to a final volume 100 mL with distilled water.
(§2) Sample Analysis: Dissolve 0.6 mg of the compound in 250 μL of deionized water separately. Add 250 μL of mouse serum or HEPES 7.4 solution to the sample, incubate at a constant temperature of 37° C., and collect samples at different time points. Pipette 20 μL of the sample to an EP tube, add 60 μL of methanol, vortex to mix thoroughly, and centrifuge at 12,000 rpm at 4° C. for 10 min. At 1 h, 2 h, 4 h, 8 h, and 12 h respectively, collect the supernatant for HPLC analysis. Inject 10 μL of sample and record the corresponding peak areas. Chromatographic conditions: Hanbang C18 column (4.6×250 mm, 5 μm); mobile phase: acetonitrile: […] ammonium formate solution=60:40; flow rate 1.0 mL/min; detection wavelength 210 nm; column temperature 30° C.

[2] = Conversion (release) of prodrug salts to parent compound in mouse plasma; format: in vitro ADME; conditions: mouse, plasma, 37 °C, read-out: Release rate (conversion to Compound 1)
Method: as §1
Plasma Preparation: Collect mouse plasma into an EP tube pre-loaded with sodium heparin, centrifuge at 8000 rpm for 10 minutes at 4° C., and then collect the supernatant.
as §2

[3] = Water solubility testing of compounds (HPLC); conditions: deionized water, 37 °C
T cells / MDSCs = experiment: Promotion of T cell proliferation in a co-culture model of MDSCs and T cells; format: cell-based, mouse; conditions: for activation at 1 µM: Mus musculus, T-cell, 12 h, read-out: T-cell proliferation rate (%), 1 μM, MDSCs treated 12 hours, co-culture of MDSCs and T cells, compared to the control group
Method: Under sterile conditions, the tibia was removed, both ends of the bone were cut, and bone marrow was repeatedly flushed into a 15 mL centrifuge tube using a 1 mL syringe filled with culture medium. Centrifuge at 1600 rpm for 5 min to collect bone marrow cells. […] The spleen cell suspension was then transferred into a 15 mL centrifuge tube. Centrifuge at 1600 rpm for 5 min to collect T cells. Wash twice with 1×PBS. Resuspend the centrifuged T cells in 1 mL PBS and add 1 mL of 10 μM CFDA-SE solution. Incubate at room temperature for 8 min. […] After drug administration, collect MDSC cells into centrifuge tubes. Centrifuge at 1600 rpm for 5 min, remove supernatant, resuspend in 1 mL fresh medium, and plate. Add 1 mL stimulated activated T cells (1:1 ratio) for 48 h co-culture. After incubation, collect cells into centrifuge tubes, wash twice with PBS, and incubate with Fc antibody at room temperature in the dark for 10 min. Add CD3-labeled flow cytometry antibody and incubate at 4° C. in the dark for 30 min. After incubation, wash cells with PBS, resuspend in 300 μL PBS, and analyze by flow cytometry.

Work on `C[C@@]12CC[C@@H]3[C@H](OC(=O)[C@H]3CN3CCOCC3)[C@@H]3[C@]1(CC[C@@]3(C)O)C2` [Compound 25] yielded a degraded at 1 h [1] of 6.8%, a degraded at 2 h [1] of 14.1% and a degraded at 4 h [1] of 26.1%. For the same molecule, the degraded at 8 h [1] was 42.8%, the degraded at 12 h [1] was 51.8% and the metabolised at 1 h [2] was 6.8%. For the same molecule, the metabolised at 2 h [2] was 14.1%, the metabolised at 4 h [2] was 25.7% and the metabolised at 8 h [2] was 43.8%. The metabolised at 12 h [2] was 51.8% and the solubility ([3]; water, Water-solubility) was 342 mg/mL (≈ 979 mM).
`CCCCN(CCCC)C[C@@H]1C(=O)O[C@H]2[C@H]1CC[C@@]1(C)C[C@]13CC[C@@](C)(O)[C@H]23` [Compound 30] showed a degraded at 1 h [1] of 6.6%, a degraded at 2 h [1] of 14.6% and a degraded at 4 h [1] of 23.8%. The degraded at 8 h [1] was 40.8%, the degraded at 12 h [1] was 49.8% and the metabolised at 1 h [2] was 6.6%. For the same molecule, the metabolised at 2 h [2] was 13.6%, the metabolised at 4 h [2] was 23.8% and the metabolised at 8 h [2] was 40.8%. For the same molecule, the metabolised at 12 h [2] was 48.8% and the Water-solubility [3] was 228.4 mg/mL.
With `C[C@@]12CC[C@@H]3[C@H](OC(=O)[C@H]3CN3CCC4(CCCC4)CC3)[C@@H]3[C@]1(CC[C@@]3(C)O)C2` [Compound 34] the degraded at 1 h [1] was 7%, the degraded at 2 h [1] was 16.2% and the degraded at 4 h [1] was 27.6%. For the same molecule, the degraded at 8 h [1] was 43.6%, the degraded at 12 h [1] was 54.4% and the metabolised at 1 h [2] was 7.8%. For the same molecule, the metabolised at 2 h [2] was 17.2%, the metabolised at 4 h [2] was 28.6% and the metabolised at 8 h [2] was 47.6%. For the same molecule, the metabolised at 12 h [2] was 58.8% and the Water-solubility [3] was 128.6 mg/mL.
`C[C@@]12CC[C@@H]3[C@H](OC(=O)[C@H]3CN3CC4CCCC4C3)[C@@H]3[C@]1(CC[C@@]3(C)O)C2` (stereo partly drawn) [Compound 32] showed a degraded at 1 h [1] of 6.9%, a degraded at 2 h [1] of 15.4% and a degraded at 4 h [1] of 26.2%. It also gave a degraded at 8 h [1] of 42.2%, a degraded at 12 h [1] of 51.2% and a metabolised at 1 h [2] of 6.3%. The metabolised at 2 h [2] was 14.4%, the metabolised at 4 h [2] was 25.2% and the metabolised at 8 h [2] was 43.2%. The metabolised at 12 h [2] was 51.4% and the Water-solubility [3] was 100.8 mg/mL.
`C[C@@]12CC[C@@H]3[C@H](OC(=O)[C@H]3CN3CCC(N4CCOCC4)CC3)[C@@H]3[C@]1(CC[C@@]3(C)O)C2` [Compound 36] showed a degraded at 1 h [1] of 6.9%, a degraded at 2 h [1] of 14.8% and a degraded at 4 h [1] of 26%. For the same molecule, the degraded at 8 h [1] was 43.6%, the degraded at 12 h [1] was 52.4% and the metabolised at 1 h [2] was 6.6%. For the same molecule, the metabolised at 2 h [2] was 14.8%, the metabolised at 4 h [2] was 26% and the metabolised at 8 h [2] was 43.6%. The metabolised at 12 h [2] was 52.1% and the Water-solubility [3] was 234.6 mg/mL.
In the case of `CC(C)N(C[C@@H]1C(=O)O[C@H]2[C@H]1CC[C@@]1(C)C[C@]13CC[C@@](C)(O)[C@H]23)C(C)C` [Compound 12], the Water-solubility [3] is reported as 0.802 mg/mL.
`C[C@@]12CC[C@@H]3[C@H](OC(=O)[C@H]3CN3CCC4(CC3)CC4)[C@@H]3[C@]1(CC[C@@]3(C)O)C2` [Compound 37] gave a degraded at 1 h [1] of 7.2%, a degraded at 2 h [1] of 16.8% and a degraded at 4 h [1] of 28.3%. It also gave a degraded at 8 h [1] of 44.1%, a degraded at 12 h [1] of 65.8% and a metabolised at 1 h [2] of 8.2%. The metabolised at 2 h [2] was 17.8%, the metabolised at 4 h [2] was 29.3% and the metabolised at 8 h [2] was 48.1%. It also gave a metabolised at 12 h [2] of 67.8% and a Water-solubility [3] of 357.5 mg/mL.
For `C[C@@]12CC[C@@H]3[C@H](OC(=O)[C@H]3CN3CCC(N4CCCCC4)CC3)[C@@H]3[C@]1(CC[C@@]3(C)O)C2` [Compound 35], the degraded at 1 h [1] was 6.8%, the degraded at 2 h [1] was 14.6% and the degraded at 4 h [1] was 26.4%. The degraded at 8 h [1] was 43.8%, the degraded at 12 h [1] was 52.5% and the metabolised at 1 h [2] was 6.8%. It also gave a metabolised at 2 h [2] of 13.6%, a metabolised at 4 h [2] of 26.4% and a metabolised at 8 h [2] of 44.8%. For the same molecule, the metabolised at 12 h [2] was 52.5% and the Water-solubility [3] was 212.6 mg/mL.
For `C[C@@]12CC[C@@H]3[C@H](OC(=O)[C@H]3CN3CCC3)[C@@H]3[C@]1(CC[C@@]3(C)O)C2` [Compound 14], the Water-solubility [3] was 0.460 mg/mL.
`C[C@@]12CC[C@@H]3[C@H](OC(=O)[C@H]3CN3CCNCC3)[C@@H]3[C@]1(CC[C@@]3(C)O)C2` [Compound 7] showed an activation at 1 µM (T cells / MDSCs) of 0 to 20%.
With `C=C1C(=O)O[C@H]2[C@H]1CCC(C)=C1CC[C@@](C)(OC(=O)N(CC)CC)[C@@H]12` [Compound 81] the activation at 1 µM (T cells / MDSCs) was 20 to 40%.
`C[C@@]12CC[C@@H]3[C@H](OC(=O)[C@H]3CN3CCC(N4CCCCC4)CC3)[C@@H]3[C@]1(CC[C@@]3(C)O)C2` [Compound 16] gave a Water-solubility [3] of 0.285 mg/mL.
In the case of `C=C1C(=O)O[C@H]2[C@H]1CCC(C)=C1CC[C@@](C)(OC(=O)NCCN(C)C)[C@@H]12` [Compound 77], the activation at 1 µM (T cells / MDSCs) is reported as 0 to 20%.
Molecule `CC1=C2CC[C@@](C)(OC(=O)N3CCCCC3)[C@@H]2[C@H]2OC(=O)[C@@H](CN3CCCC3)[C@@H]2CC1` [Compound 96] has an activation at 1 µM (T cells / MDSCs) of 0 to 20%.
With `C=C1C(=O)O[C@H]2[C@H]1CCC(C)=C1CC[C@@](C)(OC(=O)NC)[C@@H]12` [Compound 64] the activation at 1 µM (T cells / MDSCs) was > 40%.
Molecule `CCC(=O)O[C@]1(C)CC[C@@]23C[C@]2(C)CC[C@@H]2[C@H](CC(=O)[C@H]2CN(C)C)[C@H]31` [Compound 63] has an activation at 1 µM (T cells / MDSCs) of 0 to 20%.
`C=C1C(=O)O[C@H]2[C@H]1CCC(C)=C1CC[C@@](C)(OC(=O)NCc3ccccc3)[C@@H]12` [Compound 79] gave an activation at 1 µM (T cells / MDSCs) of 20 to 40%.
With `C=C1C(=O)O[C@H]2[C@H]1CCC(C)=C1CC[C@@](C)(OC(=O)N3CCN(C)CC3)[C@@H]12` [Compound 85] the activation at 1 µM (T cells / MDSCs) was 0 to 20%.
For `C=C1C(=O)O[C@H]2[C@H]1CCC(C)=C1CC[C@@](C)(OC(=O)NCCCCCO)[C@@H]12` [Compound 73], the activation at 1 µM (T cells / MDSCs) was 20 to 40%.
`C[C@@]12CC[C@@H]3[C@H](OC(=O)[C@H]3CN3CCC(N4CCOCC4)CC3)[C@@H]3[C@]1(CC[C@@]3(C)O)C2` [Compound 17] gave a Water-solubility [3] of 0.942 mg/mL.
For `CN(C)C[C@@H]1C(=O)O[C@H]2[C@H]1CC[C@@]1(C)C[C@]13C[C@@H](O)[C@@](C)(O)[C@H]23` [Compound 60], the activation at 1 µM (T cells / MDSCs) was 0 to 20%.
Molecule `C=C1C(=O)O[C@H]2[C@H]1CCC(C)=C1CC[C@@](C)(OC(=O)N3CCC(N4CCOCC4)CC3)[C@@H]12` [Compound 94] has an activation at 1 µM (T cells / MDSCs) of 20 to 40%.
Work on `C=C1C(=O)O[C@H]2[C@H]1CCC(C)=C1CC[C@@](C)(OC(=O)NCC)[C@@H]12` [Compound 65] yielded an activation at 1 µM (T cells / MDSCs) of 0 to 20%.
With `C=C1C(=O)O[C@H]2[C@H]1CCC(C)=C1CC[C@@](C)(OC(=O)N(C)CCC)[C@@H]12` [Compound 90] the activation at 1 µM (T cells / MDSCs) was 20 to 40%.
In the case of `C=C1C(=O)O[C@H]2[C@H]1CCC(C)=C1CC[C@@](C)(OC(=O)NC(CC)CC)[C@@H]12` [Compound 69], the activation at 1 µM (T cells / MDSCs) is reported as 20 to 40%.
`C=C1C(=O)O[C@H]2[C@H]1CCC(C)=C1CC[C@@](C)(OC(=O)NCCCC)[C@@H]12` [Compound 67] gave an activation at 1 µM (T cells / MDSCs) of 20 to 40%.
In the case of `C=C1C(=O)O[C@H]2[C@H]1CCC(C)=C1CC[C@@](C)(OC(=O)N3CCC(C)CC3)[C@@H]12` [Compound 84], the activation at 1 µM (T cells / MDSCs) is reported as 20 to 40%.
In the case of `CC1CCN(C[C@@H]2C(=O)O[C@H]3[C@H]2CC[C@@]2(C)C[C@]24CC[C@@](C)(O)[C@H]34)CC1` [Compound 43], the “T-cell proliferation rate (%)” value (T cells / MDSCs; 1 μM, MDSCs treated 12 hours, co-culture of MDSCs and T cells, compared to the control group) is reported as “+ (T-cell proliferation rate within the 0-20% range compared to the control group)”.
In the case of `C=C1C(=O)O[C@H]2[C@H]1CCC(C)=C1CC[C@@](C)(OC(=O)NCCCN3CCOCC3)[C@@H]12` [Compound 92], the activation at 1 µM (T cells / MDSCs) is reported as 20 to 40%.
